# Like-named read-outs stand apart in the source and are kept apart here.
# Columns and labels:
# [1] = Cytotoxicity assay (XTT), MDCK cells; assay type: cell-based, canine; conditions: dog
# Procedure: (§1) HEK 293T, A549 and MDCK cells were seeded at 3 × 10^3 cells per well in 100 μL DMEM complete medium. The following day, compounds were added to the corresponding wells, and the cells were incubated for 48 hours at 37 °C in 5% CO2. After incubation, cell viability was analyzed by XTT colorimetric assay. Then, 50 μL of a 50 : 1 mixture of XTT labelling reagent (1 mg mL^−1) and PMS electron-coupling reagent (0.383 mg mL^−1) were added to the wells and incubated for 4 hours at 37 °C in 5% CO2. The formation of orange formazan dye was measured on a Tecan Spark plate reader (Tecan Life Sciences, USA). The experiments were performed in biological triplicates, and the resulting data were analyzed using GraphPad Prism 10.0 software (GraphPad Software, San Diego, CA, USA).
# [2] = system: influenza A (A/California/07/2009 (H1N1)); assay: Cytopathic effect reduction assay in MDCK cells; assay type: cell-based; conditions: for EC50: read-out: EC50 antiviral testing MDCK
# [3] = Cytotoxicity assay (XTT), HEK 293T cells; assay type: cell-based; conditions: human
# Procedure: as §1, with “CA, USA). […]” for “CA, USA).”
# incubating serial dilutions of each tested compound and control compounds with the selected cell cultures. HEK 293T cells were seeded at 3x10^3 cells per well in 100 μl of DMEM complete medium. The following day the tested compounds were added to the corresponding well and the cells were incubated for 48 hours at 37 °C in 5% CO 2. After incubation, cell viability was analysed by XTT colorimetric assay. 50 μl of 50:1 mixture of XTT labelling reagent (1 mg/mL) and PMS electron-coupling reagent (0.383 mg/mL) were added to the wells and incubated for 4 hours at 37 °C in 5% CO2. The formation of orange formazan dye was measured on a Tecan Spark plate reader (Tecan Life Sciences, USA). The experiments were performed in biological triplicates, and the resulting data were analyzed using GraphPad Prism 10.0 software (GraphPad Software, San Diego, […]
# [4] = Cytotoxicity assay (XTT), A549 cells; assay type: cell-based, human; conditions: human
# Procedure: as §1
# [5] = system: influenza A (A/California/07/2009 (H1N1)); assay: Cytopathic effect reduction assay in A549 cells; assay type: cell-based; conditions: for EC50: read-out: EC50 antiviral testing A549
# MDCK cells = assay: Cytotoxicity assay (XTT), MDCK cells; assay type: cell-based, canine
# Procedure: as §1
# A549 cells = assay: Cytotoxicity assay (XTT), A549 cells; assay type: cell-based, human
# Procedure: as §1
# influenza A polymerase [6] = target: T1, influenza A polymerase (Influenza A virus, UniProt P15659); assay: cell-based; parameters: species or system influenza A/WSN/33 H1N1; conditions: read-out: EC50 minireplicon A549
# influenza A polymerase [7] = target: T1, influenza A polymerase; assay: cell-based; assay type: cell-based, influenza A/WSN/33 H1N1; conditions: for EC50: read-out: EC50 minireplicon HEK 293T
# [8] = Influenza A virus, H1N1, MDCK, 72 h
# [9] = Influenza A virus, H1N1, A549, 96 h
SMILES,CC50 at 48 h [1] [µM],"EC50 [2, 8] [µM]",CC50 at 48 h [3] [µM],CC50 at 48 h [4] [µM],"EC50 [5, 9] [µM]",CC50 (MDCK cells) [µM],CC50 cytotoxicity MDCK (MDCK cells),EC50 antiviral testing MDCK [2],EC50 [2] [µM],CC50 (A549 cells) [µM],CC50 cytotoxicity A549 (A549 cells),EC50 antiviral testing A549 [5],EC50 [5] [µM],EC50 (influenza A polymerase [6]) [µM],EC50 (influenza A polymerase [7]) [µM],"CC50 at 48 h ([1]; MDCK cells, 48 hours, XTT, read-out: CC50 cytotoxicity MDCK) [µM]","CC50 at 48 h ([3]; HEK 293T cells, 48 hours, XTT, read-out: CC50 cytotoxicity HEK 293T) [µM]","CC50 at 48 h ([4]; A549 cells, 48 hours, XTT, read-out: CC50 cytotoxicity A549) [µM]",EC50 minireplicon HEK 293T (influenza A polymerase [7])
"COC(=O)OCOc1c2n(ccc1=O)N([C@@H]1c3ccccc3SCc3c1ccc(F)c3F)[C@@H]1COCCN1C2=O [BMX, baloxavir marboxil, reference compound]",> 50,0.03 ± 0.008,> 50,> 50,1.8 ± 0.4,,,,,,,,,,,,,,
"O=C1c2c(O)c(=O)ccn2N([C@@H]2c3ccccc3SCc3c2ccc(F)c3F)[C@@H]2COCCN12 [BXA, baloxavir acid, reference compound]",,,,,,5 ± 1,moderate cytotoxicity,[…],[…],14 ± 3,moderate cytotoxicity,[…],[…],,,,,,
"Oc1cc(O)c2c(O)cc(-c3ccc(O)c(O)c3)cc2c1 [Compound 24, 6-(3,4-Dihydroxyphenyl)naphthalene-1,3,8-triol]",> 50,> 100,> 50,> 50,12 ± 1,,,,,,,,,0.8 ± 0.2,1.1 ± 0.1,,,,
"O=c1cc(-c2cc(O)c3c(O)cc(O)cc3c2)[nH]cc1O [Compound 33, 5-Hydroxy-2-(4,5,7-trihydroxynaphthalen-2-yl)pyridin-4(1H)-one]",> 50,41 ± 13,> 50,> 50,2.4 ± 0.4,,,,,,,,,2.8 ± 0.6,2.1 ± 0.2,,,,
"O=c1[nH]c(-c2cc(O)c3c(O)cc(O)cc3c2)cnc1O [Compound 34, 3-Hydroxy-6-(4,5,7-trihydroxynaphthalen-2-yl)pyrazin-2(1H)-one]",> 50,> 100,> 50,> 50,> 100,,,,,,,,,1.7 ± 0.4,1.8 ± 0.1,,,,
"O=c1[nH]c(-c2cc(O)c3c(O)cc(O)cc3c2)ncc1O [Compound 36, 5-Hydroxy-2-(4,5,7-trihydroxynaphthalen-2-yl)pyrimidin-4(3H)-one]",> 50,> 100,> 50,> 50,10 ± 1,,,,,,,,,1.8 ± 0.5,1.4 ± 0.2,,,,
"O=c1cc(-c2ccc(O)c(O)c2)oc2cc(O)cc(O)c12 [Luteolin, luteolin, reference compound]",,> 100,,,20 ± 2,,,,,,,,,9.2 ± 4.1,> 100,> 50,> 50,> 50,did not show any inhibition

# Reference: paper PMC12154555, “Beyond natural flavonoids: exploring bioisosterism in design and synthesis of influenza endonuclease inhibitors” (RSC Medicinal Chemistry, 2025)
